Reference: patent EP0906335B1, “EBV TYPE B CTL EPITOPES” (THE COUNCIL OF THE QUEENSLAND INSTITUTE OF MEDICAL RESEARCH, priority 1996, dated 2008)

System: autologous PHA blasts
Assay: CTL assay of type B specific culture B5 against overlapping EBNA-6B peptides (epitope mapping)
Type: cell-based
Settings: peptides preincubated with autologous PHA blasts; Fig. 3a, 3b
Method: Assessment of peptide specific activity.
The type B specific culture B5 recognised the peptide corresponding to EBNA-6B residues 210-229 (peptide 12 of the EBNA-6B set) when assayed against individual 20-mer overlapping peptides preincubated with autologous PHA blasts (Fig. 3a). […] The corresponding peptide from the type A overlapping sequence was not recognised by this culture, thus confirming the type B specificity of these T cells.

Substance	recognition by type B specific culture B5
peptide 12: 20-mer overlapping peptide corresponding to EBNA-6B residues 210-229	recognised

System: autologous PHA-blasts
Assay: CTL assay of culture A3 against overlapping EBNA-6B peptides (epitope mapping)
Settings: peptides on autologous PHA-blasts; Fig. 4a, 4b

Substance	recognition by culture A3
peptide 19: 20-mer overlapping peptide of EBNA-6B, residues 280-299	reactive

System: HLA
Assay: not given
Settings: Table 4, from the cited reference; cited from earlier work

Substance	HLA Restriction
TSLYNLRRGTALA	HLA DR1
FLRGRAYGL	HLA B8
NPTQAPVIQLVHAVY	HLA A11
LPGPQVTAVLLHEES	HLA A11
DEPASTEPVHDQLL	HLA A11
TVFYNIPPNIPL	HLA DQ2
EENLLDFVRF	HLA B44
RYSIFFDY	HLA 24
RRRWRRLTV	HLA B27
RPPIFIRRL	HLA B7
SVRDRLARL	HLA A2
VSFIEFVGW	HLA B57
DTPLIPLTIF	HLA B51/A2
RLRAEAGVK	HLA A3
CLGGLLTMV	HLA A2
VEITPYKPTW	HLA B44
KEHVIQNAF	HLA B44
QPRAPIRPI	HLA B7
